Reference: publication PMC11942486, “The Impact of a Quinone Scaffold on Thermo-TRPs Modulation by Dimethylheptyl Phytocannabinoids” (International Journal of Molecular Sciences, 2025)
Like-named read-outs stand apart in the source and are kept apart here.

Assays:
rat TRPV3 [1] = target: T1, rat TRPV3 (Rattus norvegicus, UniProt Q4QYD9); parameters: method as in PMID 34440274
T1 construct: expressed in transfected cells
T1 sequence (Q4QYD9 1-791): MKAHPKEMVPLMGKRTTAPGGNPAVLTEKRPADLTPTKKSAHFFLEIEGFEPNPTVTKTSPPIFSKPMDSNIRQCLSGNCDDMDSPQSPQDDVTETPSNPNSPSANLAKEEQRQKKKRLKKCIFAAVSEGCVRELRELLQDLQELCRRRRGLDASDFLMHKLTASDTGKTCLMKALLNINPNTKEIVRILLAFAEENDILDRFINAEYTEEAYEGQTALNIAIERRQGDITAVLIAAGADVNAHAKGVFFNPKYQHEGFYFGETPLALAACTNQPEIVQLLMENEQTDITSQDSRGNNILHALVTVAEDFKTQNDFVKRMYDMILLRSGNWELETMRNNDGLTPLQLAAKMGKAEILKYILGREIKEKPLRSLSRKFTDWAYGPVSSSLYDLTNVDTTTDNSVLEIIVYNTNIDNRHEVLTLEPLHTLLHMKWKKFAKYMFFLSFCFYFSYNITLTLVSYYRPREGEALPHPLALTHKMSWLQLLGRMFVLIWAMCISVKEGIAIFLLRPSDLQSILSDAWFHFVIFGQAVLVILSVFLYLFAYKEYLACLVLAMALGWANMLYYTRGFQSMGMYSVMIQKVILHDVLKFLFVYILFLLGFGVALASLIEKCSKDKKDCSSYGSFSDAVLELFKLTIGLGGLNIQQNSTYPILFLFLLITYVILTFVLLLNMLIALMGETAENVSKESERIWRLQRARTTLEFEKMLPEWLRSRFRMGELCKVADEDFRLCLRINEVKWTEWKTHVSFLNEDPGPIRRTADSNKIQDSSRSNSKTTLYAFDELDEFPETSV

human TRPV1 [2] = target: T2, human TRPV1 (Homo sapiens, UniProt Q8NER1); parameters: method as in PMID 34440274
T2 construct: expressed in transfected cells

rat TRPA1 [3] = target: T3, rat TRPA1 (Rattus norvegicus, UniProt Q6RI86); parameters: method as in PMID 34440274; settings: cited from earlier work; for TRPA1 Efficacy (% AITC 100 μM): agonist effect as % of AITC 100 μM, HEK-293 rat TRPA1
T3 construct: expressed in transfected cells

rat TRPV4 [4] = target: T4, rat TRPV4 (Rattus norvegicus, UniProt Q9ERZ8); parameters: method as in PMID 34440274
T4 construct: expressed in transfected cells

rat TRPV2 [5] = target: T5, rat TRPV2 (Rattus norvegicus, UniProt Q9WUD2); parameters: method as in PMID 34440274; settings: cited from earlier work; for TRPV2 Efficacy (% Ionomycin 4 μM): agonist effect as % of ionomycin 4 μM
T5 construct: expressed in transfected cells
T5 sequence (Q9WUD2 1-761): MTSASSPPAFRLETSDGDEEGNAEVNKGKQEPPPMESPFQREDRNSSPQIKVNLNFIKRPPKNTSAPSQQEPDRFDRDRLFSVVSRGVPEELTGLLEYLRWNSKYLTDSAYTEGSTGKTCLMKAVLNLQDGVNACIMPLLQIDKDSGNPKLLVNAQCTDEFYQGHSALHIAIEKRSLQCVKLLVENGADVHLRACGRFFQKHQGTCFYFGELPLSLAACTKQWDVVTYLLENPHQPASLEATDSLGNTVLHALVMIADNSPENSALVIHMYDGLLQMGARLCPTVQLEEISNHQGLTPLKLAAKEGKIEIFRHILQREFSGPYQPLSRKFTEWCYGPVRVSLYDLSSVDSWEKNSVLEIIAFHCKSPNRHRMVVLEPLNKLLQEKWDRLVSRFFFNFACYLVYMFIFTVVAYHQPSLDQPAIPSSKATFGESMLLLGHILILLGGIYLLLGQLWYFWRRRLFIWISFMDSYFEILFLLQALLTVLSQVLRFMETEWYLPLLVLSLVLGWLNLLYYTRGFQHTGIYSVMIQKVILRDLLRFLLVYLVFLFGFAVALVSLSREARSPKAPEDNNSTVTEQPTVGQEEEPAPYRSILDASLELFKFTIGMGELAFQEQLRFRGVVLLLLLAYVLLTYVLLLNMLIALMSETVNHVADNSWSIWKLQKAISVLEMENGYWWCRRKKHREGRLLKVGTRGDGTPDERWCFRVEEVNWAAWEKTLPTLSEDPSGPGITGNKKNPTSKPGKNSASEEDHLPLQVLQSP

rat TRPM8 [6] = target: T6, rat TRPM8 (Rattus norvegicus, UniProt Q8R455); parameters: method as in PMID 34440274; settings: vs Icilin 0.25 μM; 22 °C; cited from earlier work
T6 construct: expressed in transfected cells

rat TRPV4 [7] = target: T4, rat TRPV4; assay: Thermo-TRP assay: [Ca2+]i elevation (Fluo-4) in HEK-293 cells transfected with TRPV4; format: cell-based
Protocol: (§1) The compounds were tested on HEK-293 cells either stably transfected with rat TRPA1, TRPV2, TRPV3, TRPV4, TRPM8 or human TRPV1 or not-transfected, by performing a continuous monitoring of the intracellular calcium ([Ca^2+]i) elevation during the experiments, following the protocol already described. […] Cell fluorescence before and after the addition of various concentrations of tested compounds was measured, normalizing the effects against the response to ionomycin (IM, 4 μM). The effect on [Ca^2+]i in non-transfected HEK-293 cells were used as the baseline and subtracted from the values obtained from the transfected ones. The efficacy of the agonists was determined by normalizing their effect to the maximum Ca^2+ influx effect on [Ca^2+]i observed with application of 4μM ionomycin. The effects of TRPA1 agonists are expressed as a percentage of the effect obtained with 100 μM allyl isothiocyanate (AITC). In the TRPV3 assay, rat TRPV3-expressing HEK-293 cells were first sensitized with the structurally unrelated agonist 2-aminoethoxydiphenyl borate (100 μM). For the TRPM8, the experiments were carried out at 22 °C. The potency (EC50 values) is determined as the concentration required to produce half-maximal increases in [Ca^2+]i. […] A dose-response curve fitting (sigmoidal dose-response variable slope) and parameter estimation were performed with Graph-Pad Prism 8 (GraphPad Software Inc., San Diego, CA, USA). All determinations were performed at least in triplicate.

rat TRPV2 [8] = target: T5, rat TRPV2; assay: Thermo-TRP assay: [Ca2+]i elevation (Fluo-4) in HEK-293 cells transfected with TRPV2; format: cell-based
Protocol: (§2) The compounds were tested on HEK-293 cells either stably transfected with rat TRPA1, TRPV2, TRPV3, TRPV4, TRPM8 or human TRPV1 or not-transfected, by performing a continuous monitoring of the intracellular calcium ([Ca^2+]i) elevation during the experiments, following the protocol already described. On the day of the experiment, the cells were loaded for 1 h in the dark at room temperature with the fluorescent probe Fluo-4 AM (4 μM in DMSO containing 0.02% Pluronic F-127). The cells were rinsed, resuspended in Tyrode’s solution (145 mM NaCl, 2.5 mM KCl, 1.5 mM CaCl2, 1.2 mM MgCl2, 10 mM D-glucose, and 10 mM HEPES, pH 7.4), and transferred to a quartz cuvette of a spectrofluorimeter (PerkinElmer LS50B; λEX = 488 nm, λEM = 516 nm) equipped with a PTP-1 fluorescence Peltier system (PerkinElmer Life and Analytical Sciences, Waltham, MA, USA) under continuous stirring. Cell fluorescence before and after the addition of various concentrations of tested compounds was measured, normalizing the effects against the response to ionomycin (IM, 4 μM). The effect on [Ca^2+]i in non-transfected HEK-293 cells were used as the baseline and subtracted from the values obtained from the transfected ones. The efficacy of the agonists was determined by normalizing their effect to the maximum Ca^2+ influx effect on [Ca^2+]i observed with application of 4μM ionomycin. The effects of TRPA1 agonists are expressed as a percentage of the effect obtained with 100 μM allyl isothiocyanate (AITC). In the TRPV3 assay, rat TRPV3-expressing HEK-293 cells were first sensitized with the structurally unrelated agonist 2-aminoethoxydiphenyl borate (100 μM). For the TRPM8, the experiments were carried out at 22 °C. The potency (EC50 values) is determined as the concentration required to produce half-maximal increases in [Ca^2+]i. Antagonist/desensitizing behavior is evaluated against the agonist of the TRP analyzed by adding the compounds directly in the quartz cuvette 5 min before stimulation of cells with the agonist (allylisothiocyanate (100 μM) for TRPA1, capsaicin (0.1 μM) for TRPV1, cannabidiol (2 μM) for TRPV2, thymol (100 μM) for TRPV3, GSK1016790A (10 nM) for TRPV4, and icilin (0.25 μM) for TRPM8). The IC50 value is expressed as the concentration exerting a half-maximal inhibition of the agonist effect, taking as 100% the effect on [Ca^2+]i exerted by the agonist alone. A dose-response curve fitting (sigmoidal dose-response variable slope) and parameter estimation were performed with Graph-Pad Prism 8 (GraphPad Software Inc., San Diego, CA, USA). All determinations were performed at least in triplicate.

rat TRPV3 [9] = target: T1, rat TRPV3; assay: Thermo-TRP assay: [Ca2+]i elevation (Fluo-4) in HEK-293 cells transfected with TRPV3; format: cell-based
Protocol: as §2

human TRPV1 [10] = target: T2, human TRPV1; assay: Thermo-TRP assay: [Ca2+]i elevation (Fluo-4) in HEK-293 cells transfected with TRPV1; format: cell-based
Protocol: as §1

rat TRPA1 [11] = target: T3, rat TRPA1; assay: Thermo-TRP assay: [Ca2+]i elevation (Fluo-4) in HEK-293 cells transfected with TRPA1; format: cell-based
Protocol: as §1

rat TRPM8 [12] = target: T6, rat TRPM8; assay: Thermo-TRP assay: [Ca2+]i elevation (Fluo-4) in HEK-293 cells transfected with TRPM8; format: cell-based
Protocol: as §1

[13] = agonist effect as % of ionomycin 4 μM; cited from earlier work
[14] = antagonist/desensitizing, vs Thymol 100 μM; cited from earlier work
[15] = vs Capsaicin 0.1 μM; read-out: IC50 TRPV1; cited from earlier work
[16] = vs GSK1016790A 10 nM; read-out: IC50 TRPV4; cited from earlier work
[17] = read-out: IC50 TRPV1; vs Capsaicin 0.1 μM; cited from earlier work
[18] = read-out: IC50 TRPV4; vs GSK1016790A 10 nM; cited from earlier work

T3 sequence (Q6RI86 whole entry): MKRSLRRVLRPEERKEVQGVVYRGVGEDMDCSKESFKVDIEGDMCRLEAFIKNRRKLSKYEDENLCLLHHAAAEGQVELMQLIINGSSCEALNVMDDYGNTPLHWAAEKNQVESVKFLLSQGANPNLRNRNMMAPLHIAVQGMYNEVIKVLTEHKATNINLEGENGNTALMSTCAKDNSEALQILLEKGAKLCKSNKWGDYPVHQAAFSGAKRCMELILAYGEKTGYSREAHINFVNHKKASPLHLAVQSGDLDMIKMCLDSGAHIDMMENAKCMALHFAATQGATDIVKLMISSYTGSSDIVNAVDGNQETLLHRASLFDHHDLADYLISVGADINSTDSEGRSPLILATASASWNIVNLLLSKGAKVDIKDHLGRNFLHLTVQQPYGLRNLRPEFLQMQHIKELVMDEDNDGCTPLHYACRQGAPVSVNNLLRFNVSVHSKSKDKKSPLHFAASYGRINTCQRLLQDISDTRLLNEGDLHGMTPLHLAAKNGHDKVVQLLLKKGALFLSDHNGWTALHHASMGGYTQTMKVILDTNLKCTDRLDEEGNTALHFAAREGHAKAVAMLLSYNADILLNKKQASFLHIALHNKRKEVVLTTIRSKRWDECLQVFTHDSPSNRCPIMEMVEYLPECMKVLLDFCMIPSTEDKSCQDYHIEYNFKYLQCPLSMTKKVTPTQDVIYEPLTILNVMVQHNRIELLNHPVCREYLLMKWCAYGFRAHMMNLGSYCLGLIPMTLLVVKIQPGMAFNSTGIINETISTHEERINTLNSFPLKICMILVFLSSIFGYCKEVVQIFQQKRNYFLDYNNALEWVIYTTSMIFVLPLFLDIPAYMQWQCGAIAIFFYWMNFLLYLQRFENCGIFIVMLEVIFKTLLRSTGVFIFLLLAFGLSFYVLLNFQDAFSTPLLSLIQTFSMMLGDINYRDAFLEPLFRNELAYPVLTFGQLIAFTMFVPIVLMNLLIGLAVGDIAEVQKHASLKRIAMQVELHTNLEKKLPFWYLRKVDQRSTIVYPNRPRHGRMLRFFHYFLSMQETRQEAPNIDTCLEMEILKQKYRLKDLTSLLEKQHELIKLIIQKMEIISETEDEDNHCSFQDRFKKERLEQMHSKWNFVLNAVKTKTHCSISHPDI
T2 sequence (Q8NER1 whole entry): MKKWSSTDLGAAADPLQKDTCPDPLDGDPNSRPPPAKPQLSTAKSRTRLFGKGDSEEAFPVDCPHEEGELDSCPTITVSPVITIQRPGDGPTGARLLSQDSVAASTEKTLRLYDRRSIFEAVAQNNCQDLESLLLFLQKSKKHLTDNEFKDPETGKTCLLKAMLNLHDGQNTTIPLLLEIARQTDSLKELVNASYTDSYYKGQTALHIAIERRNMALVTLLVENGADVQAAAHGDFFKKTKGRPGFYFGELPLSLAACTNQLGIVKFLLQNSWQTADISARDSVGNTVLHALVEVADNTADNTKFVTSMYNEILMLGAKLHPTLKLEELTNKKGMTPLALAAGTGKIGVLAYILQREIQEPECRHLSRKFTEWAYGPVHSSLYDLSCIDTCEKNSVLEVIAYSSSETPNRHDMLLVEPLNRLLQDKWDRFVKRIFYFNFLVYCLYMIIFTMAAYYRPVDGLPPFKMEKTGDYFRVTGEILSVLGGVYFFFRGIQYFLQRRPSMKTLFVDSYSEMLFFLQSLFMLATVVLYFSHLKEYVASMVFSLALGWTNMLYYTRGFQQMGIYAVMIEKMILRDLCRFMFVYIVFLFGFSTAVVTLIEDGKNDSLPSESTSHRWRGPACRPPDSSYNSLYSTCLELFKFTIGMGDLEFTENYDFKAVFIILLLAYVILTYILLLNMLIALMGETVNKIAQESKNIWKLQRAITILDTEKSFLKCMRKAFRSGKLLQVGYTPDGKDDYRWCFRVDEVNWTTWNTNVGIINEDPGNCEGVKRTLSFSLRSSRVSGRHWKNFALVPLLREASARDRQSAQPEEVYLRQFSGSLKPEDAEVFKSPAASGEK
T4 sequence (Q9ERZ8 whole entry): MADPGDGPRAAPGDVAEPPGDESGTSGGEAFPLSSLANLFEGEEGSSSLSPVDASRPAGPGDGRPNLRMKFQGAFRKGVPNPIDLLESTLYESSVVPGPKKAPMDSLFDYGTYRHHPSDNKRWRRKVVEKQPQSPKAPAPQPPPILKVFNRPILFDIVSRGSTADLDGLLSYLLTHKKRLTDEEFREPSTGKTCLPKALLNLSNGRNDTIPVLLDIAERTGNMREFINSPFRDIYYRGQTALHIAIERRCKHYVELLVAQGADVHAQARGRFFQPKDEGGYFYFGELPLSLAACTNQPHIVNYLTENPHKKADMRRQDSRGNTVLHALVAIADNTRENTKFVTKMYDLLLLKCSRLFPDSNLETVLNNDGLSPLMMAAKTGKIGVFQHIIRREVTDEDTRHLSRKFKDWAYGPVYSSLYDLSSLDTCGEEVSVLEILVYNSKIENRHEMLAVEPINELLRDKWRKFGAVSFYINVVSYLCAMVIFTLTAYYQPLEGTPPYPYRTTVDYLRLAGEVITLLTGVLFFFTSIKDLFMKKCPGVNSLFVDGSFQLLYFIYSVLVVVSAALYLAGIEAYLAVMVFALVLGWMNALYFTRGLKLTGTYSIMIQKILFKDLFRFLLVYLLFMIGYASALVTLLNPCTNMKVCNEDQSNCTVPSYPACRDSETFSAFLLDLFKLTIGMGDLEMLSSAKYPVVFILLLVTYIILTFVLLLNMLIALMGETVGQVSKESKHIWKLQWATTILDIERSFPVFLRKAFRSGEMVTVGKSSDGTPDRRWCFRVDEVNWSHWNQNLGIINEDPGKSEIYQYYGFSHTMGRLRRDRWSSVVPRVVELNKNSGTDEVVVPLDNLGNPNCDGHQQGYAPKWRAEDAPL
T6 sequence (Q8R455 whole entry): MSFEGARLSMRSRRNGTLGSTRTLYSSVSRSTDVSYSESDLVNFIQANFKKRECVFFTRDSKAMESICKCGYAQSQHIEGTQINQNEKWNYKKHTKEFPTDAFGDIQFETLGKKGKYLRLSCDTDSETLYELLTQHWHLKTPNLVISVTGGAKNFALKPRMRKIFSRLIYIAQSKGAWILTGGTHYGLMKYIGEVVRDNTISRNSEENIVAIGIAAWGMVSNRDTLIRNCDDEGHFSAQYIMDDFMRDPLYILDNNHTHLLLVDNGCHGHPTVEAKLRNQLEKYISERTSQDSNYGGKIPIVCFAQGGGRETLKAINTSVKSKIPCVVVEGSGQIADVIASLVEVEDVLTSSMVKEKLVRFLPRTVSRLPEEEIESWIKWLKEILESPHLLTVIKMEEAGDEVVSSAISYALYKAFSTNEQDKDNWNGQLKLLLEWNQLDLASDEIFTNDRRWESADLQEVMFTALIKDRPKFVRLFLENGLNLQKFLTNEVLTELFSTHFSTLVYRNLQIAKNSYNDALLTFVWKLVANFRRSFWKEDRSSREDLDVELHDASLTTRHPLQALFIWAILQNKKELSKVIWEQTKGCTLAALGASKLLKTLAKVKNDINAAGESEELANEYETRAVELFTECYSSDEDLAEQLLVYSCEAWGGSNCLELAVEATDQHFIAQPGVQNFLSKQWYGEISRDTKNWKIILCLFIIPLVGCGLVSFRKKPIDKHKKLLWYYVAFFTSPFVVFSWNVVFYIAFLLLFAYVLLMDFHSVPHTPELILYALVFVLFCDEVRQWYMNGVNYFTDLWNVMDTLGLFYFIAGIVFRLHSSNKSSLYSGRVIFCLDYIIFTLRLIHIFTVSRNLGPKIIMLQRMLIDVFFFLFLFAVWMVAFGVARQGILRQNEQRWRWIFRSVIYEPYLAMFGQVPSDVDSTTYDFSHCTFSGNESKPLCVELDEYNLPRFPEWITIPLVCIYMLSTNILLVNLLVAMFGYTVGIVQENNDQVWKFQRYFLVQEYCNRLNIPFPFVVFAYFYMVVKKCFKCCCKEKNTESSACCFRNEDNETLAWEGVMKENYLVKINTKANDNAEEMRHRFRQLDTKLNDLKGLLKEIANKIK

Row | Compound | TRPV3 Efficacy (% Ionomycin 4 μM) (rat TRPV3 [1]; [13]) | IC50 (rat TRPV3 [1]; [14]) | IC50 (human TRPV1 [2]; [15]) | TRPA1 Efficacy (% AITC 100 μM) (rat TRPA1 [3]) | IC50 (rat TRPV4 [4]; [16]) | TRPV2 Efficacy (% Ionomycin 4 μM) (rat TRPV2 [5]) | IC50 (human TRPV1 [2]; [17]) | IC50 (rat TRPV4 [4]; [18]) | other results
1 | C=C(C)[C@@H]1CCC(C)=C[C@H]1c1c(O)cc(C(C)(C)CCCCCC)cc1O [5a, DMH-CBD] | 15.8 ± 0.4% | > 30 µM | > 100 µM | 133.4 ± 5.3% | > 100 µM | <10% |  |  | 
2 | CCCCCCC(C)(C)c1cc(O)c2c(c1)OC(C)(C)[C@@H]1CC=C(C)C[C@@H]21 [6a, DMH-Δ⁸-THC] | 53.8 ± 1.6% |  |  | 124.2 ± 4.0% |  | <10% | > 100 µM | > 100 µM | 
3 | CCCCCCC(C)(C)c1cc(O)c(C/C=C(\C)CCC=C(C)C)c(O)c1 [7a, DMH-CBG] | 64.6 ± 4.8% | > 30 µM | > 100 µM | 99.2 ± 4.5% |  | 65.3 ± 0.7% |  |  | 
4 | CCCCCCC(C)(C)c1cc(O)c2c(c1)OC(C)(CCC=C(C)C)C=C2 (centres unmarked) [8a, DMH-CBC] | 41.6 ± 1.8% | > 50 µM | > 100 µM | 120.4 ± 2.8% | > 100 µM | 76.1 ± 0.6% |  |  | IC50 (rat TRPM8 [6]): > 100 µM; EC50 (rat TRPV3 [1]; half-maximal increase in [Ca2+]i; read-out: TRPV3 Potency EC50; cited from earlier work): > 50 µM; IC50 (rat TRPA1 [3]; read-out: IC50 TRPA1, antagonist/desensitizing, vs AITC 100 μM): 0.37 µM
5 | CCCCCCC(C)(C)c1cc(O)c2c(c1)OC(C)(C)c1ccc(C)cc1-2 [9a, DMH-CBN] | 20.9 ± 3.0% |  |  | 132.3 ± 7.9% |  | 10.5 ± 0.02% | > 100 µM | > 100 µM | EC50 (rat TRPV3 [1]; read-out: TRPV3 Potency EC50; half-maximal increase in [Ca2+]i; cited from earlier work): 41.4 ± 21.6 µM; IC50 (rat TRPV2 [5]; read-out: IC50 TRPV2, vs CBD 2 μM): > 50 µM; EC50 (rat TRPV2 [5]; read-out: TRPV2 Potency EC50, half-maximal increase in [Ca2+]i): 0.25 ± 0.03 µM
6 | CCCCCCC(C)(C)C1=CC2=C(C(=O)C1=O)c1cc(C)ccc1C(C)(C)O2 [9b] |  |  |  |  |  |  |  |  | IC50 (rat TRPV4 [7]): > 100 µM; TRPV2 Efficacy (% Ionomycin 4 μM) (rat TRPV2 [8]; agonist effect as % of ionomycin 4 μM): 23.4 ± 3.7%; EC50 (rat TRPV2 [8]; half-maximal increase in [Ca2+]i, read-out: TRPV2 Potency EC50): 2 ± 1.6 µM; IC50 (rat TRPV2 [8]; vs CBD 2 μM): 5.2 ± 0.6 µM; TRPV3 Efficacy (% Ionomycin 4 μM) (rat TRPV3 [9]; agonist effect as % of ionomycin 4 μM, cells sensitized with 2-aminoethoxydiphenyl borate 100 μM): 32.5 ± 0.65%; IC50 (rat TRPV3 [9]; antagonist/desensitizing, vs Thymol 100 μM): 19.4 ± 3.5 µM; EC50 (rat TRPV3 [9]; half-maximal increase in [Ca2+]i, read-out: TRPV3 Potency EC50): 1.15 ± 0.15 µM; IC50 (human TRPV1 [10]): > 100 µM; IC50 (rat TRPA1 [11]; IC50 TRPA1, antagonist/desensitizing, added 5 min before AITC 100 μM): 15.1 ± 2.4 µM; TRPA1 Efficacy (% AITC 100 μM) (rat TRPA1 [11]; agonist effect as % of AITC 100 μM, HEK-293 rat TRPA1): 20.5%; IC50 (rat TRPM8 [12]): > 100 µM
